Measurements as given in PubChem BioAssay (NCI).
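Cells were grown in 96-well plates and exposed to each compound for 48 hours at five concentrations; endpoints were interpolated linearly between bracketing concentrations, or set to the highest concentration if not reached. Here, GI50 denotes the concentration required for 50% inhibition of growth. TGI: concentration producing complete growth inhibition.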

Columns and labels:
Experiment in all cases: NCI anticancer screen, dose series, 48 h
[1] = tested on: 786-0 renal
[2] = tested on: HOP-62 NSCLC
[3] = tested on: HOP-92 NSCLC
[4] = tested on: K-562 leukemia
[5] = tested on: NCI-H226 lung
[6] = tested on: NCI-H460 lung
[7] = tested on: SK-MEL-5 melanoma
[8] = tested on: U251 CNS
[9] = tested on: MDA-MB-231 breast
[10] = tested on: NCI/ADR-RES ovarian

SMILES | TGI [1] | TGI [2] | TGI [3] | TGI [4] | TGI [5] | TGI [6] | TGI [7] | TGI [8] | GI50 [1] | GI50 [3] | GI50 [9] | TGI [9] | GI50 [5] | GI50 [6] | GI50 [7] | GI50 [2] | GI50 [8] | GI50 [4] | GI50 [10] | TGI [10]
CCOC(OC1=C(C#N)CCC1)C(CC)[Se]c1ccccc1 (centres undefined) | 28.2 µM | > 100 µM | 54 µM | > 100 µM | 53.4 µM | > 100 µM | 31.6 µM | 23.9 µM | – | – | – | – | – | – | – | – | – | – | – | –
COc1cccc2c(=O)c3c(sc12)c(NCCCN)nc1ccccc13 | 3.14 µM | – | 2.75 µM | – | 3.15 µM | 2.23 µM | 3.07 µM | – | 1.65 µM | 1.27 µM | 1.29 µM | 2.67 µM | 1.52 µM | 0.745 µM | 1.69 µM | – | – | – | – | –
Cn1nnnc1[N-]Cc1ccccc1.[Au+].c1ccc([PH+](c2ccccc2)c2ccccc2)cc1 | 3.37 µM | 30 µM | 4.68 µM | – | 29.7 µM | 65.7 µM | 3.6 µM | 11.8 µM | 1.71 µM | 2.44 µM | – | – | 8.49 µM | 19.1 µM | 1.6 µM | 16 µM | 3.41 µM | – | – | –
Cc1ccc(S(=O)(=O)ON/N=C2/C3OC3[C@@H]3CCCC[C@H]23)cc1 (some centres undefined) | > 100 µM | > 100 µM | > 100 µM | > 100 µM | > 100 µM | > 100 µM | – | > 100 µM | – | – | – | – | – | – | – | – | – | – | – | –
O=C(O)c1[nH]c(C(=O)O)c(CC(F)(F)C(F)(F)C(F)(F)F)c1CC(F)(F)C(F)(F)C(F)(F)F | > 100 µM | > 100 µM | > 100 µM | > 100 µM | > 100 µM | > 100 µM | > 100 µM | > 100 µM | – | – | – | – | – | – | – | – | – | – | – | –
CC1(C)OC2C(=O)OC(COCc3ccccc3)C2O1 (centres undefined) | > 100 µM | > 100 µM | > 100 µM | > 100 µM | > 100 µM | > 100 µM | > 100 µM | > 100 µM | – | – | – | – | – | – | – | – | – | – | – | –
C=C1C(O)C2C(=C(CC(C)C)C13CC3)C(=O)C(C)(C)C2OC (centres undefined) | > 100 µM | > 100 µM | > 100 µM | > 100 µM | – | > 100 µM | > 100 µM | > 100 µM | > 100 µM | 97 µM | > 100 µM | > 100 µM | – | > 100 µM | > 100 µM | > 100 µM | > 100 µM | 81.5 µM | > 100 µM | > 100 µM
Cn1cc(NC(=O)c2cc(NC(=O)CCCCCC(=O)Nc3cc(C(=O)Nc4cc(C(=O)NCCC(=N)N)n(C)c4)n(C)c3)cn2C)cc1C(=O)NCCC(=N)N | > 100 µM | – | > 100 µM | > 100 µM | – | > 100 µM | > 100 µM | > 100 µM | – | – | – | – | – | – | – | – | – | – | – | –
O=C(Nc1ccc(Br)cc1)c1cc(Br)cc(Br)c1O | 29.7 µM | 6.5 µM | – | > 100 µM | 12.3 µM | 6.86 µM | 4.57 µM | 23.1 µM | 3.02 µM | – | 2.08 µM | 6.28 µM | 3.45 µM | 2.6 µM | 2.15 µM | 2.45 µM | 2.79 µM | 3.1 µM | 2.94 µM | 9.47 µM
Cc1ccc(C)c(NC(=O)/C(=N\NC(N)=S)C(C#N)c2ccccc2)c1 (centres undefined) | > 100 µM | > 100 µM | > 100 µM | > 100 µM | > 100 µM | > 100 µM | > 100 µM | > 100 µM | – | – | – | – | – | – | – | – | – | – | – | –
CN(C)CCNC(=O)c1cc([N+](=O)[O-])cc2ccc(-c3ccccc3)nc12 | 94.3 µM | 38.1 µM | 27.4 µM | 54.1 µM | 11.8 µM | 12.8 µM | 11.8 µM | 32 µM | – | – | – | – | – | – | – | – | – | – | – | 9.97 µM
O=C1OCC2=Nc3cccc4cccc(c34)N12 | > 100 µM | > 100 µM | – | > 100 µM | > 100 µM | > 100 µM | > 100 µM | > 100 µM | – | – | – | > 100 µM | – | – | – | – | – | – | – | > 100 µM
COc1ccc(/C=[N+](\[O-])[C@H](COCc2ccccc2)c2ccccc2)cc1 | > 100 µM | > 100 µM | > 100 µM | > 100 µM | – | > 100 µM | – | > 100 µM | – | – | – | – | – | – | – | – | – | – | – | –
c1cc2c(cnc3cscc32)s1 | > 100 µM | > 100 µM | > 100 µM | > 100 µM | > 100 µM | > 100 µM | > 100 µM | > 100 µM | – | – | – | – | – | – | – | – | – | – | – | –
Cc1c2ncccc2c(C)c2c1[nH]c1ccccc12 | 23.2 µM | 24.1 µM | 25.3 µM | 41.7 µM | 35.9 µM | 28.7 µM | – | 24.7 µM | – | – | – | – | – | – | – | – | – | – | – | –
CC(SC1=CC(=O)c2c(O)ccc(O)c2C1=O)C(=O)O (centres undefined) | 56.8 µM | > 100 µM | > 83.1 µM | 40.7 µM | > 100 µM | > 100 µM | > 100 µM | > 60.1 µM | – | – | – | – | – | – | – | – | – | – | – | –
[Cl][Sn]([c]1ccccc1)[c]1ccccc1 | 12.8 µM | 40.7 µM | 8.69 µM | 7.31 µM | 29.6 µM | 38.7 µM | 11.2 µM | 23.2 µM | 3.79 µM | 3.61 µM | – | – | 15.8 µM | 18.3 µM | 3.35 µM | 22.9 µM | 10.3 µM | 2.14 µM | – | –
COc1cc2ccc3c4cc(OC)c(OCc5ccccc5)cc4cnc3c2cc1OC | > 100 µM | > 100 µM | – | > 100 µM | – | > 100 µM | > 100 µM | > 100 µM | – | – | – | – | – | – | – | – | – | – | – | –
c1cncc(C2c3[nH]c4ccccc4c3CCN2CCN2CCCCC2)c1 (centres undefined) | > 100 µM | > 100 µM | > 100 µM | > 100 µM | – | > 100 µM | > 100 µM | > 100 µM | – | – | – | – | – | – | – | – | – | – | – | –
C=CCN(N=O)C(=O)N(CCC)CCCC(NC(C)=O)C(=O)NCc1ccccc1 (centres undefined) | > 100 µM | > 100 µM | – | > 100 µM | – | > 100 µM | > 100 µM | > 100 µM | – | – | – | – | – | – | – | – | – | – | – | –
CCCN(CCCCC(NC(C)=O)C(=O)NCc1ccccc1)C(=O)NC (centres undefined) | > 100 µM | > 100 µM | > 100 µM | > 100 µM | > 100 µM | > 100 µM | > 100 µM | > 100 µM | – | – | – | – | – | – | – | – | – | – | – | –
COC(=O)/C(=N/NC(C)(C)C)C(C(=O)C=C(C)C)C(=O)C(=O)Nc1ccc(Cl)cc1C (centres undefined) | > 100 µM | > 100 µM | – | > 100 µM | > 100 µM | > 100 µM | > 100 µM | > 100 µM | – | – | – | – | – | – | – | – | – | – | – | –
